The record followed here is patent US20180207099A1, “NON-[…] FOR THE MIC[…] DIGOXIN” (priority 2015, published 2018).

The data set in a line: Particle size of micronized digoxin obtained by the non-mechanical process. Particulars: for >90% of the particles (number distribution); digoxin precipitated per Example 1. The format is physicochemical. The source says:
The digoxin thus obtained has a high purity and is ready to be incorporated in the usual pharmaceutical formulations, typically tablets; it has particle size of 20-30 micrometers for at least 90% of the particles, and is exempt from degradation products, as evident by a wholly neutral colour, and further confirmable analytically. In the present invention, the particle size distribution is meant as “number distribution” (thus not “volume distribution” or “mass distribution”); accordingly, any expressions of the type “x-y micrometers for at least m % of the particles” describes a particle distribution characterized in that at least m % of the number of particles making up the product have a size comprised between x and y micrometers; relevant particle size values can be measured by usual techniques, including laser diffraction, dynamic light scattering, dynamic image analysis, suitably equipped with data processing systems. The obtained digoxin can be formulated with common excipients. Suitable excipients are cellulose products like microcrystalline cellulose, cellulose ethers like methylcellulose, ethylcellulose, hydroxyethylcellulose, crosslinked polymers (e.g. polyplasdone XL, hyaluronic acid or alginic acid cross-linked with urea), gums from plants, etc. Common diluents like mannitol, fructose, as well as compression aids like magnesium stearate, can also be used. […]

As to `C[C@H]1O[C@@H](O[C@H]2[C@@H](O)C[C@H](O[C@H]3[C@@H](O)C[C@H](O[C@H]4CC[C@@]5(C)[C@H](CC[C@@H]6[C@@H]5C[C@@H](O)[C@]5(C)[C@@H](C7=CC(=O)OC7)CC[C@]65O)C4)O[C@@H]3C)O[C@@H]2C)C[C@H](O)[C@@H]1O` [digoxin], the particle size is given as 20-30 micrometers.
